Values belong to the compound of their own block, whether it stands above or below them.
Assays:
[1] = Induction of mitotic arrest in human multiple myeloma cells; format: functional, cell-based; settings: multiple myeloma cell
[2] = Cytotoxicity against human multiple myeloma cells by WST-1 assay; format: functional, cell-based; settings: Multiple myeloma cell
Proteasome = assay: Inhibition of proteasome (unknown origin); format: subcellular, Homo sapiens
[3] = Anticancer activity in human multiple myeloma cells; format: functional, cell-based; settings: Multiple myeloma cell
[4] = Immunomodulatory activity in human MM cells; format: functional, cell-based; settings: multiple myeloma cell
[5] = tested on: Multiple myeloma cancer stem cell; assay: Cytotoxicity against human Myeloma-stem like cells; format: functional, cell-based

SMILES: O=C1c2ccccc2C(=O)c2oc(-c3cccnc3)nc21
IC50 [2]: 100 nM

SMILES: CN(C)CCC(CSc1ccccc1)Nc1ccc(S(=O)(=O)NC(=O)c2ccc(N3CCN(Cc4ccccc4-c4ccc(Cl)cc4)CC3)cc2)cc1[N+](=O)[O-] (stereo not drawn)
IC50 [2]: < 500 nM

SMILES: N#C/C(=C/c1cccc(Br)n1)C(=O)NCc1cccc(CNC(=O)/C(C#N)=C\c2cccc(Br)n2)c1
IC50 [2]: 240 nM

SMILES: CC(NC(=O)/C(C#N)=C/c1cccc(/C=C(\C#N)C(=O)NC(C)c2ccccc2)c1)c1ccccc1 (stereo not drawn)
IC50 [2]: 400 nM

SMILES: C=CCn1c(=O)c2cnc(Nc3ccc(N4CCN(C)CC4)cc3)nc2n1-c1cccc(C(C)(C)O)n1 [ADAVOSERTIB]
IC50 [5]: 310 nM

SMILES: CCN(CCCNC(=O)c1ccc2nc3c(c(Cl)c2c1)CCCC3)Cc1ccccc1
IC50 [2]: 22600 nM

SMILES: CN(CCCNC(=O)c1ccc2nc3c(c(Cl)c2c1)CCCC3)Cc1ccccc1
IC50 [2]: 28100 nM

SMILES: CC(=O)c1cc([N+](=O)[O-])c(Sc2cccc(Cl)c2Cl)s1
IC50 [2]: 6000 nM

SMILES: CCCSc1nc(NCCN)c2nnn(Cc3ccc(Cl)cc3)c2n1
IC50 [2]: 1100 nM

SMILES: C=CC(=O)N1CC/C(=C\c2ccc(F)c([N+](=O)[O-])c2)C(=O)/C(=C/c2ccc(F)c([N+](=O)[O-])c2)C1
IC50 [2]: 43 nM

SMILES: CS(=O)(=O)N1CCN(C(=S)Nc2ccc([N+](=O)[O-])cc2)CC1
IC50 [2]: 33900 nM

SMILES: CCCC(NC(=O)/C(C#N)=C/c1cccc(Br)n1)c1ccccc1 (stereo not drawn)
IC50 [2]: 1600 nM

SMILES: O=C(CBr)N1CC([N+](=O)[O-])([N+](=O)[O-])C1 [NIBROZETONE]
IC50 [2]: 1250 nM

SMILES: CCc1c(-c2ccc(C(=O)NC)nc2)cnc(N)c1-c1ccc(O)cc1
IC50 [2]: 1340 nM

SMILES: CCc1c(-c2ccc3[nH]ncc3c2)cnc(N)c1-c1ccc(O)cc1
IC50 [2]: 750 nM

Next, values leading:

IC50 [1]: 5000 nM
SMILES: CN(C)c1ccccc1CN1CCCN(Cc2ccccc2N(C)C)C1c1ccncc1

IC50 [1]: 5250 nM
SMILES: O=[N+]([O-])c1ccc(O)c2ncccc12 [NITROXOLINE]

IC50 (Proteasome): 261 nM
SMILES: CC[C@H](C)[C@H](NC(=O)[C@H]([C@@H](C)CC)N(C)C(C)=O)C(=O)N[C@H](C(=O)N[C@@H](CC(C)C)C(=O)[C@@]1(C)CO1)[C@@H](C)O [EPOXOMYCIN]

IC50 [1]: 28300 nM
SMILES: Cc1ccc(CN(CC(O)COc2cccc3[nH]ccc23)C(C)(C)C)cc1 (stereo not drawn)

IC50 [3]: 44 nM
SMILES: O=C(/C=C\n1cnc(-c2cc(C(F)(F)F)cc(C(F)(F)F)c2)n1)NNc1cnccn1 [SELINEXOR]

IC50 [1]: 6.1 nM
SMILES: CON(C)C(=O)N1N=C(c2cc(F)ccc2F)S[C@@]1(CCCN)c1ccccc1 [FILANESIB]

IC50 [4]: 194000 nM
SMILES: O=C1CCC(N2C(=O)c3ccccc3C2=O)C(=O)N1 (stereo not drawn) [THALIDOMIDE]

IC50 [4]: 13 nM
SMILES: O=C1CC[C@H](N2Cc3c(OCc4ccc(CN5CCOCC5)cc4)cccc3C2=O)C(=O)N1 [IBERDOMIDE]

IC50 [1]: 27 nM
SMILES: c1cc(CN2CCCNCCNCCCNCC2)ccc1CN1CCCNCCNCCCNCC1 [PLERIXAFOR]

IC50 (Proteasome): 5 nM
SMILES: CC(C)C[C@H](NC(=O)CNC(=O)c1cc(Cl)ccc1Cl)B(O)O [IXAZOMIB]

IC50 [4]: 35 nM
SMILES: Nc1cccc2c1C(=O)N(C1CCC(=O)NC1=O)C2=O (stereo not drawn) [POMALIDOMIDE]

IC50 (Proteasome): 33 nM
SMILES: CC(C)C[C@H](NC(=O)[C@H](CCc1ccccc1)NC(=O)CN1CCOCC1)C(=O)N[C@@H](Cc1ccccc1)C(=O)N[C@@H](CC(C)C)C(=O)[C@@]1(C)CO1 [CARFILZOMIB]

IC50 [4]: 0.3 nM
SMILES: Cc1ccc(NC(=O)NCc2ccc3c(c2)CN(C2CCC(=O)NC2=O)C3=O)cc1Cl (stereo not drawn)

IC50 (Proteasome): 260 nM
SMILES: CC(=O)N[C@@H](CCc1ccccc1)C(=O)N[C@@H](CC(C)C)C(=O)N[C@@H](Cc1ccccc1)C(=O)N[C@@H](CC(C)C)C(=O)[C@]1(C)CO1

IC50 [4]: 81 nM
SMILES: Nc1cccc2c1CN(C1CCC(=O)NC1=O)C2=O (stereo not drawn) [LENALIDOMIDE]

IC50 (Proteasome): 4 nM
SMILES: NS(=O)(=O)OC[C@@H]1C[C@@H](n2ccc3c(N[C@H]4CCc5ccccc54)ncnc32)C[C@@H]1O [PEVONEDISTAT]

IC50 [3]: 26.7 nM
SMILES: CC1(C)CCC(CN2CCN(c3ccc(C(=O)NS(=O)(=O)c4ccc(NCC5CCOCC5)c([N+](=O)[O-])c4)c(Oc4cnc5[nH]ccc5c4)c3)CC2)=C(c2ccc(Cl)cc2)C1 [VENETOCLAX]
